Laboratory results: patent EP1978972B1, “USE OF ALKYLGLUCOSIDE ESTERS AS BETA-DEFENSIN INDUCERS” (Pierre Fabre Dermo-Cosmétique, priority 2006, dated 2007)

Test system: hBD-2
Type: cell-based, human
Conditions: skin explant, systemic
Description: Il est connu de WO 97/45101 que les esters d'α-alkylglucoside peuvent être utilisés comme agent anti-microbien et/ou anti-fongique pour agir en tant que conservateur dans une composition, pour la préserver d'un développement microbien. D'autre part, les propriétés moussantes des esters de méthyl glucose sont décrites dans Desai et al (« Sofw Journal Seife, Oele, Fette, Wachse, Verlag für chemische Industrie » 1991). • Modèle cellulaire : lignée cellulaire HaCat, kératynocytes d'origine humaine, primoculture de kératinocytes humains • Modèle tissulaire : • Explants de peau normale provenant de déchet opératoire de chirurgie esthétique • Explants de gencive normale provenant de déchet opératoire de chirurgie implantatoire ou d'épithélium gingival reconstruit à partir de cellules épithéliales orales primaires • ➢ Les cellules HaCat sont ensemencées et cultivées en plaque 6 puits à 200 000 cellules/puits sous un volume de 2 ml de milieu de culture DMEM 1640 : (Ref: Invitrogen) complémenté par 10 % de sérum de veau foetal (SVF, Ref : CH30160.02 Perbio-Hyclone) pendant 18 h (sur la nuit). • ➢ A T0 les cellules sont lavées avec du tampon Phosphate (PBS, Ref: 52100-039 Invitrogen) puis privées en sérum pour les rendre quiescentes pendant 24 h (ralentissement de leur croissance et élimination de toute trace de facteurs susceptibles de perturber les effets induits par les traitements ultérieurs). • ➢ A T0+24 h les cellules sont traitées par des cytokines pro-inflammatoires (TNF-α à 10 ng/ml, IL1-β à 10 ng/ml) ou des éléments bactériens (LPS à 50 ng/ml, SEB à 100 ng/ml) ou des actifs potentiels de type « alkyle mono- ou di-ester d'α,β-butylglucoside » dilués dans du DMEM (1 ml/puits); La durée du traitement est de 3 h à 37°C. • ➢ Les kératinocytes primaires sont préparés à partir de peau normale provenant de déchet opératoire de chirurgie esthétique. Ils sont ensemencés et cultivés en plaque 24 puits à 60 000 cellules/puits sous un volume de 0,5 ml de milieu de culture KSFM (Ref : 37010 Invitrogen) complémenté par de l'EGF (Epidermal Growth Factor) à 1,5 ng/ml et du BPE (bovine pituitary extract) à 25 µg/ml pendant 24 h. • ➢ A J0, le milieu est remplacé par 0,5 ml de milieu KSFM complet, additionné de 1,2 nM de calcium. • ➢ A J+3, les cellules sont traitées par des cytokines pro-inflammatoires TNF-α et IL 1-β à 10 ng/ml ou des actifs potentiels de type « alkyle mono- ou di-ester d'α,β-butylglucoside » dilués dans 0,3 ml de milieu KSFM complet, en présence de 1,2 nM de calcium. […]

## laurate de butylglucoside [αβ-LBG brut]
  incubation time from which hBD-2 induction is effective: ≤ 1 h
30 µg/ml, in words
  synthèse des transcrits hBD-2: capable d'induire la synthèse des transcrits hBD-2
